# Measurements reported in article PMC7303124, “RPamide neuropeptides NLP-22 and NLP-2 act through GnRH-like receptors to promote sleep and wakefulness in C. elegans” (Scientific Reports, 2020).
# Where “and” joins values, the source holds several entries; their conditions need not be identical. Identical values can stand only once. Where a SMILES comes first, the peptide text is derived from it.
# How the values were obtained:
# [1] = target: T1, GNRR-3 (Caenorhabditis elegans, UniProt Q23265); assay: Receptor activation assay (aequorin calcium mobilization), GNRR-3 co-expressed with promiscuous Gα16 in CHO cells; assay type: cell-based, C. elegans; conditions: for EC50: CHO cells stably expressing apo-aequorin and Gα16, transiently transfected receptor, aequorin luminescence relative to total calcium response, mean EC50, N = 5–7 replicates, 95% confidence interval given; for Activation of GNRR-3 (in words): CHO/apo-aequorin/Gα16 calcium mobilization assay, peptides initially tested at 10 µM
# T1 sequence (Q23265 1-395): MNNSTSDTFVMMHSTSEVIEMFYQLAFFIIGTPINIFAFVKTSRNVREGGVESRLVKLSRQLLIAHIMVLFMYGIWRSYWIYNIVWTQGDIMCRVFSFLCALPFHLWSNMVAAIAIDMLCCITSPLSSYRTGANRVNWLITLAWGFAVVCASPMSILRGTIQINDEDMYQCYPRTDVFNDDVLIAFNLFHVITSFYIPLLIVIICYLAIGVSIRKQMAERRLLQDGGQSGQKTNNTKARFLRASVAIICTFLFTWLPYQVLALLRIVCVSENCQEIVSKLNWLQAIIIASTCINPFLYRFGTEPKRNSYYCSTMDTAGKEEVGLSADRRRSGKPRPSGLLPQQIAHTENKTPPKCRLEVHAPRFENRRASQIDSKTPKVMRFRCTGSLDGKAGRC
# Text: (§1) We tested a C. elegans peptide library for the ability to activate these seven receptors using an in vitro calcium mobilization assay. We cloned and transiently expressed each of the seven GNRRs in Chinese hamster ovary (CHO) cells stably expressing apo-aequorin and the human promiscuous Gα16 protein. These cells were challenged with a synthetic library of over 340 C. elegans peptides of the RFamide (FLP) and neuropeptide-like protein (NLP) families. […] Peptides encoded by nlp-2 and nlp-23 potently activated GNRR-3 with EC50 values in the nanomolar range. By contrast, NLP-22 activated GNRR-3 with far lower potency (EC50 value > 6 µM), which may be physiologically irrelevant. GNRR-6 was potently activated by NLP-22 and NLP-23 peptides. Peptides encoded by nlp-2 also activated GNRR-6, although with a higher EC50 value than NLP-22 and NLP-23. […] In short, we identified the neuropeptides encoded by nlp-2, nlp-22 and nlp-23 as bioactive ligands of the GnRH/AKH-like receptors GNRR-3 and GNRR-6 in vitro.
# (§2) Figure 2 NLP-2, NLP-22, and NLP-23 peptides activate GNRR-3 and GNRR-6 in vitro. Dose-response curves for GNRR-3 (A) and GNRR-6 (B) co-expressed in CHO cells with a promiscuous Gα16 protein are shown as relative (%) to the highest value (100% activation) after normalization to the total calcium response. Each data point represents the mean ± SEM of N = 5–7 replicates for each peptide. (C) Amino acid (AA) sequences of RPamide neuropeptides activating GNRR-3 and GNRR-6 with their respective mean EC50 values and 95% Confidence intervals.
# (§3) Peptides were custom-synthesized by GL Biochem Ltd. All peptides were initially tested at a concentration of 10 µM. Receptor activating peptides were purified using reverse-phase HPLC and verified using MALDI TOF mass spectrometry. Peptide concentrations were determined with a bicinchoninic acid (BCA) assay. For receptor activation assays, peptides were first lyophilized and then diluted to the desired concentrations.
# (§4) Chinese hamster ovary (CHO) cells stably expressing apo-aequorin and the promiscuous Gα16 subunit were used for receptor deorphanization (ES-000-A24, Perkin-Elmer). To characterize downstream signaling, CHO cells stably expressing apo-aequorin but lacking the promiscuous Gα16 protein were used (ES-000-A12, Perkin-Elmer). Cells were cultured in Dulbecco’s Modified Eagle’s Medium Nutrient Mixture Ham F-12 (DMEM/F-12, Invitrogen) to which 1% penicillin/streptomycin, 2.5 µg/ml amphotericin B, and 10% fetal bovine serum (Sigma-Aldrich) were added. Growth medium was supplemented with 250 µg/ml zeocin or 5 µg/ml puromycin, which serves as a selection reagent for CHO cells with or without the promiscuous Gα16 subunit, respectively. Cells were grown as a monolayer at 37 °C, 5% CO2 and high humidity. For transfection, 3.75 ml Opti-MEM I (Invitrogen), 7.5 µg pcDNA3.1 construct and 18.75 µl Plus reagent (Invitrogen) were gently mixed in a polystyrene tube. After incubation for 5 minutes at room temperature, 45 µl Lipofectamine LTX (Invitrogen) was added and gently mixed. The transfection reagent was incubated for 30 min at room temperature. Growth medium was removed leaving 3 ml and the transfection reagents were added dropwise to the cells. Transfected cells were grown overnight and 20 ml growth medium was added the next day. Cells were grown one more day before the assay at 28 °C.
# (§5) Two days after transfection, CHO cells were detached from the surface of the culture flask using phosphate buffered saline with 0.2% EDTA and collected in 10 ml colorless DMEM/F-12 (11039, Gibco). Cell viability was measured using a NucleoCounter NC-100 (Chemometic). Cells were pelleted for 4 min at 800 rpm at room temperature and resuspended to a concentration of 5 × 10^6 cells/ml in colorless DMEM/F12 with 0.1% bovine serum albumin (BSA). 5 µM coelenterazine H (Invitrogen) was added to the cell suspension. […]
# [2] = target: T2, GNRR-6 (Caenorhabditis elegans, UniProt Q19399); assay: Receptor activation assay (aequorin calcium mobilization), GNRR-6 co-expressed with promiscuous Gα16 in CHO cells; assay type: cell-based, C. elegans; conditions: for EC50: CHO cells stably expressing apo-aequorin and Gα16, transiently transfected receptor, aequorin luminescence relative to total calcium response, mean EC50, N = 5–7 replicates, 95% confidence interval given; for Activation of GNRR-6 (in words): CHO/apo-aequorin/Gα16 calcium mobilization assay, peptides initially tested at 10 µM
# T2 sequence (Q19399 1-400): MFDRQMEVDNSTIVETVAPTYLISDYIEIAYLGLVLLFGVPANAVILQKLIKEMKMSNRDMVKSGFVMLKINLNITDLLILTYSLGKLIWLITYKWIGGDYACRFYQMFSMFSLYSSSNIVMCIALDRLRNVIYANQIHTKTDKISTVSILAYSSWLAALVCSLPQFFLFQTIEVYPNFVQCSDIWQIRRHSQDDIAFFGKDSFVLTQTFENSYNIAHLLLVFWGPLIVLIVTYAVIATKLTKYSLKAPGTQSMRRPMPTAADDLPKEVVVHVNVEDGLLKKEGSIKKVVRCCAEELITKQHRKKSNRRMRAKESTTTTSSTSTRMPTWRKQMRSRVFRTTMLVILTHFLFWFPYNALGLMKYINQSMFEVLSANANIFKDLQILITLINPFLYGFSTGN
# Text: as §1, §2, §3, §4, §5
Molecule,EC50 [1],EC50 [2] [µM],Activation of GNRR-3 (in words) [1],Activation of GNRR-6 (in words) [2]
CSCC[C@H](NC(=O)[C@H](C)NC(=O)[C@H](CCSC)NC(=O)[C@@H](N)CO)C(=O)NCC(=O)N[C@@H](CCCNC(=N)N)C(=O)N[C@@H](CC(C)C)C(=O)NCC(=O)N[C@@H](CC(C)C)C(=O)N[C@@H](CCCNC(=N)N)C(=O)N1CCC[C@H]1C(N)=O [NLP-2-2] (H-SMAMGRLGLRP-NH2; N-terminus assumed),0.558 µM,0.542,activated these receptors in a dose-dependent manner,activated these receptors in a dose-dependent manner
CC[C@H](C)[C@H](NC(=O)[C@@H](N)CO)C(=O)N[C@@H](C)C(=O)N[C@@H](CC(C)C)C(=O)NCC(=O)N[C@@H](CCCNC(=N)N)C(=O)N[C@@H](CO)C(=O)NCC(=O)N[C@@H](Cc1ccccc1)C(=O)N[C@@H](CCCNC(=N)N)C(=O)N1CCC[C@H]1C(N)=O [NLP-2-1] (H-SIALGRSGFRP-NH2; N-terminus assumed),81 µM,0.135,activated these receptors in a dose-dependent manner,activated these receptors in a dose-dependent manner
"LYISRQGFRPA [NLP-23-1, NLP-23 derived peptide … lacking the C-terminal glycine amidation target]",,,did not activate,did not activate
CSCC[C@H](NC(=O)[C@@H](N)CO)C(=O)N[C@@H](C)C(=O)N[C@@H](Cc1ccc(O)cc1)C(=O)NCC(=O)N[C@@H](CCCNC(=N)N)C(=O)N[C@@H](CCC(N)=O)C(=O)NCC(=O)N[C@@H](Cc1ccccc1)C(=O)N[C@@H](CCCNC(=N)N)C(=O)N1CCC[C@H]1C(N)=O [NLP-2-3] (H-SMAYGRQGFRP-NH2; N-terminus assumed),3.3 µM,0.169,activated these receptors in a dose-dependent manner,activated these receptors in a dose-dependent manner

# More lines, main results first:
EC50 [1],EC50 [2] [µM],Molecule,Activation of GNRR-3 (in words) [1],Activation of GNRR-6 (in words) [2]
> 6 µM and 6.7 µM,0.0041,CC[C@H](C)[C@H](NC(=O)[C@H](C)NC(=O)[C@@H](NC(=O)[C@@H](N)CO)[C@@H](C)CC)C(=O)NCC(=O)N[C@@H](CCCNC(=N)N)C(=O)N[C@@H](C)C(=O)NCC(=O)N[C@@H](Cc1ccccc1)C(=O)N[C@@H](CCCNC(=N)N)C(=O)N1CCC[C@H]1C(N)=O [NLP-22] (H-SIAIGRAGFRP-NH2; N-terminus assumed),activated these receptors in a dose-dependent manner,activated these receptors in a dose-dependent manner
0.158 µM,0.006,CC[C@H](C)[C@H](NC(=O)[C@H](C)NC(=O)[C@H](CCSC)NC(=O)[C@@H](N)CO)C(=O)NCC(=O)N[C@@H](CCCNC(=N)N)C(=O)N[C@@H](C)C(=O)NCC(=O)N[C@@H](CCSC)C(=O)N[C@@H](CCCNC(=N)N)C(=O)N1CCC[C@H]1C(N)=O [NLP-23-2] (H-SMAIGRAGMRP-NH2; N-terminus assumed),activated these receptors in a dose-dependent manner,activated these receptors in a dose-dependent manner
